Measured values reported in US10189826B2, “Heterocyclic compounds and methods of use” (Medivation Technologies LLC, priority 2015, dated 2019).
Like-named read-outs stand apart in the source and are kept apart here.

Legend:
[1] = tested on: SREBP-2 transcriptional activity (SREBP2 cleavage) in HepG2_LSSprom cells; assay: Luciferase reporter driven by a SREBP-2 specific promoter in HepG2_LSSprom cells; assay type: cell-based; settings: read-out: SREBP2 Cleavage (IC50 μM) 24 h
Protocol: Dose response effects were measured of Compounds on the transcriptional activity of a Luciferase reporter driven by a SREBP-2 specific promoter in HepG2_LSSprom cells.
(§1) HepG2_LSSprom cells (SwitchGear Genomics, cat# C711010L) were cultured in DMEM with 10% of fetal bovine serum (FBS), supplemented with Puromycin (1 μg/mL), 1% Penicillin/Streptomycin (Pen-Strep), 37° C., humidified, 95% air and 5% CO2. Culture media was refreshed every 2 or 3 days. Cells were used between passage number 6-12.
For luminescence assays, cells were plated out at 20,000 cells/well in white 96 well plates in DMEM plus 10% FBS and 1% Pen-Strep without puromycin. After 1 day, cells were treated with Compound by diluting the drug in culture medium without FBS to a final concentration of 0.625, 1.25, 2.5, 3.75, 5 and 10 μM. Drug was prepared by dilutions of 10 mM stock aliquots. As control was used culture medium without FBS plus DMSO. Treatments with Compound were maintained for 6 h, or 24 h, until the luciferase assay was carried out.
After 6 h of treatments with Compound, the luciferase assay was performed. Briefly, the assay solution (buffer+substrate) was prepare just prior to use. To each well 100 μL of assay solution was added. The 96-well plate was then gently mix for 2 min and incubated for 30 min at RT protected from light. The luminescence was read using a Synergy 4 (Biotek) equipment recording luminescence with sensibility set up at 150.
(§2) Five independent experiments were carried out for both luciferase and cytotoxicity assay. In each experiment, three wells were use per condition and the results are represented as means±SEM.
For luciferase assay, Vehicle (no treatment) was taken as 100% of luciferase activity. This value represents the SREBP-2 transcriptional activity for the vehicle condition and was taken as 100% of SREBP-2 cleaved. The percentage for each treatment was calculated normalizing against the vehicle control. The graphics were made using the GraphPad Prism ver. 6.05 software. Half of maximal inhibitory concentration (IC50) of the effect of Compound on SREBP was obtain by nonlinear fit regression of mean normalized values vs. Compound concentration using the log(inhibitor) vs. response−Variable slope (four parameters) tool.

[2] = Cytotoxicity assay (LDH release) in HepG2_LSSprom cells; assay type: cell-based; settings: human, 24 h treatment, LDH release
Protocol: as §1
For cytotoxicity assays, cells were plated out at 20,000 cells/well in transparent 96 well plates in DMEM plus 10% FBS and 1% Pen-Strep without puromycin. After 1 day, cells were treated with Compound by diluting in culture medium without FBS to a final concentration of 0.625, 1.25, 2.5, 3.75, 5 and 10 μM. Compound was prepared by dilutions of 10 mM stock aliquots. As a negative control culture medium was used without FBS plus DMSO. As maximum LDH release control (Lysis control) a lysis buffer provided by the kit manufacturer was used. Treatments with Compound were maintained for 6 h, or 24 h, in cell culture medium without serum until the cytotoxicity assay was started.
The cytotoxicity assay was performed according to the manufacturer's instructions. As maximum LDH release control (Lysis control) 3 wells per plate were treated with 10 μL of lysis buffer 45 min before the treatment was over. Briefly, after the 6 h, or 24 h, of treatment, 50 μL of media from each well was transferred to a new 96-well plate. To the transferred media, 50 μL of reconstituted substrate mix was added. The plates were covered from light and incubated at RT for 10 min. Then, 50 μL of stop solution was added to each well. The plates were then read using a Synergy 4 (Biotek) equipment recording the absorbance at 490 nm.
as §2
For cytotoxicity assay, Lysis control was taken as 100%/o of LDH release. The vehicle values were taken as basal LDH release and were subtracted to all the treatments (including vehicle itself) having this value as 0% of LDH release. The LDH release for the treatments was calculated respect to the 100% of LDH release of Lysis control normalized against vehicle. All the negatives values were taken as 0% of cytotoxicity. The graphics were made using the Graph Prism ver. 6.05 software.

[3] = 24 h, 24 h treatment, HepG2_LSSprom cells

| Compound | IC50 [1, 3] [µM] | IC50 ([1]; 24 h treatment, HepG2_LSSprom cells) [µM] | IC50 at 24 h ([2]; HepG2 LSSprom cells) [µM] | IC50 ([1]; 24 h) [µM] | IC50 at 24 h [2] [µM] |
| --- | --- | --- | --- | --- | --- |
| CC(C)(C)c1cc(-c2cc(-c3ccc(C(=O)Nc4ccccc4)cc3Cl)cs2)ccn1 [Compound 23, 4-[5-(2-tert-butylpyridin-4-yl)thiophen-3-yl]-3-chloro-N-phenylbenzamide] | – | – | > 10 | 0.48 | – |
| CC(C)(C)c1cc(-c2nc(-c3ccc(C(=O)N4CCC(F)(F)CC4)cc3Cl)c[nH]2)ccn1 [Compound 24, 2-tert-butyl-4-{4-[2-chloro-4-(4,4-difluoropiperidine-1-carbonyl)phenyl]-1H-imidazol-2-yl}pyridine] | > 3 | 2.7 | > 10 | – | – |
| CC(C)(C)c1cc(-c2nc(-c3ccc(C(=O)N4CCCCC4)cc3Cl)c[nH]2)ccn1 [Compound 25, 2-tert-butyl-4-{4-[2-chloro-4-(piperidine-1-carbonyl)phenyl]-1H-imidazol-2-yl}pyridine] | 0.62 | – | > 10 | – | – |
| CN1CCc2cc(-c3csc(-c4ccnc(C(C)(C)C)c4)c3)ccc2C1=O [Compound 26, 6-[5-(2-tert-butylpyridin-4-yl)thiophen-3-yl]-2-methyl-1,2,3,4-tetrahydroisoquinolin-1-one] | > 3 | – | > 10 | – | – |
| CC(C)N(C(=O)c1ccc(-c2csc(-c3ccnc(C(C)(C)C)c3)c2)c(Cl)c1)C(C)C [Compound 33, 4-[5-(2-tert-butylpyridin-4-yl)thiophen-3-yl]-3-chloro-N,N-bis(propan-2-yl) benzamide] | 0.21 | – | > 10 | – | – |
| CC(C)N1CCc2cc(-c3csc(-c4ccnc(C(C)(C)C)c4)c3)ccc2C1=O [Compound 35, 6-[5-(2-tert-butylpyridin-4-yl)thiophen-3-yl]-2-(propan-2-yl)-1,2,3,4-tetrahydroisoquinolin-1-one] | 2.4 | – | > 10 | – | – |
| CC(C)(C)OC(=O)NC1CCN(C(=O)c2ccc(-c3csc(-c4ccnc(C(C)(C)C)c4)c3)c(Cl)c2)CC1 [Compound 37, tert-butyl N-(1-{4-[5-(2-tert-butylpyridin-4-yl)thiophen-3-yl]-3-chlorobenzoyl}piperidin-4-yl)carbamate] | 0.91 | – | > 10 | – | – |
| CCN1CCN(C(=O)c2ccc(-c3csc(-c4ccnc(C(C)(C)C)c4)c3)c(Cl)c2)CC1=O [Compound 39, 4-{4-[5-(2-tert-butylpyridin-4-yl)thiophen-3-yl]-3-chlorobenzoyl}-1-ethylpiperazin-2-one] | – | – | > 10 | 6.2 | – |
| CC(C)(C)c1cc(-c2csc(-c3ccc(C(=O)N4CCC(F)(F)CC4)cc3Cl)c2)ccn1 [Compound 40, 2-tert-butyl-4-{5-[2-chloro-4-(4,4-difluoropiperidine-1-carbonyl)phenyl]thiophen-3-yl}pyridine] | 0.15 | – | > 10 | – | – |
| CN(C(=O)c1ccc(-c2csc(-c3ccnc(C(C)(C)C)c3)c2)c(Cl)c1)c1ccccc1 [Compound 41, 4-[5-(2-tert-butylpyridin-4-yl)thiophen-3-yl]-3-chloro-N-methyl-N-phenyl benzamide] | 0.39 | – | > 10 | – | – |
| CC(C)(C)c1cc(-c2cc(-c3ccc(C(=O)N4CCC4)cc3Cl)cs2)ccn1 [Compound 42, 4-{4-[4-(azetidine-1-carbonyl)-2-chlorophenyl]thiophen-2-yl}-2-tert-butylpyridine] | – | – | > 10 | 0.84 | – |
| CC(C)(C)c1cc(-c2cc(-c3ccc(C(=O)N4CC5(COC5)C4)cc3Cl)cs2)ccn1 [Compound 43, 6-{4-[5-(2-tert-butylpyridin-4-yl)thiophen-3-yl]-3-chlorobenzoyl}-2-oxa-6-azaspiro[3.3]heptane] | 3.8 | – | – | – | > 10 |
| CCOC(=O)NC1CCCN(C(=O)c2ccc(-c3csc(-c4ccnc(C(C)(C)C)c4)c3)c(Cl)c2)C1 (stereo not shown) [Compound 44, ethyl N-(1-{4-[5-(2-tert-butylpyridin-4-yl)thiophen-3-yl]-3-chlorobenzoyl}piperidin-3-yl)carbamate] | – | – | > 10 | 0.44 | – |
| CCOC(=O)N1CCN(C(=O)c2ccc(-c3csc(-c4ccnc(C(C)(C)C)c4)c3)c(Cl)c2)CC1 [Compound 45, ethyl 4-{4-[5-(2-tert-butylpyridin-4-yl)thiophen-3-yl]-3-chlorobenzoyl}piperazine-1-carboxylate] | – | – | > 10 | 1.8 | – |
| CCN(CCNC(C)=O)C(=O)c1ccc(-c2csc(-c3ccnc(C(C)(C)C)c3)c2)c(Cl)c1 [Compound 47, N-[2-(1-{4-[5-(2-tert-butylpyridin-4-yl)thiophen-3-yl]-3-chlorophenyl}-N-ethylformamido)ethyl]acetamide] | 0.33 | – | > 10 | – | – |

More lines, main results first:

| IC50 [1, 3] [µM] | IC50 ([1]; 24 h treatment, HepG2_LSSprom cells) [µM] | Compound | IC50 at 24 h ([2]; HepG2 LSSprom cells) [µM] | IC50 ([1]; 24 h) [µM] | IC50 at 24 h [2] [µM] |
| --- | --- | --- | --- | --- | --- |
| 0.82 | – | CC(C)(C)c1cc(-c2cc(-c3ccc(C(=O)N4CCOCC4)cc3Cl)cs2)ccn1 [Compound 22, 4-{4-[5-(2-tert-butylpyridin-4-yl)thiophen-3-yl]-3-chlorobenzoyl}morpholine] | > 3 | – | – |
| 0.68 | – | CC(C)(C)OC(=O)N1CCN(C(=O)c2ccc(-c3csc(-c4ccnc(C(C)(C)C)c4)c3)c(Cl)c2)CC1 [Compound 27, tert-butyl 4-{4-[5-(2-tert-butylpyridin-4-yl)thiophen-3-yl]-3-chlorobenzoyl}piperazine-1-carboxylate] | > 10 | – | – |
| > 3 | – | CC(C)(C)c1cc(-c2cc(-c3ccc(C(=O)N4CCNCC4)cc3Cl)cs2)ccn1 [Compound 28, 1-{4-[5-(2-tert-butylpyridin-4-yl)thiophen-3-yl]-3-chlorobenzoyl}piperazine] | > 10 | – | – |
| 1.4 | – | CC(=O)N1CCN(C(=O)c2ccc(-c3csc(-c4ccnc(C(C)(C)C)c4)c3)c(Cl)c2)CC1 [Compound 29, 1-(4-{4-[5-(2-tert-butylpyridin-4-yl)thiophen-3-yl]-3-chlorobenzoyl}piperazin-1-yl)ethan-1-one] | > 10 | – | – |
| 2.5 | – | CC(C)(C)c1cc(-c2cc(-c3ccc(C(=O)N4CCN(S(C)(=O)=O)CC4)cc3Cl)cs2)ccn1 [Compound 30, 1-{4-[5-(2-tert-butylpyridin-4-yl)thiophen-3-yl]-3-chlorobenzoyl}-4-methane sulfonylpiperazine] | > 10 | – | – |
| 2.1 | – | CC(=O)NC1CCN(C(=O)c2ccc(-c3csc(-c4ccnc(C(C)(C)C)c4)c3)c(Cl)c2)CC1 [Compound 38, N-(1-{4-[5-(2-tert-butylpyridin-4-yl)thiophen-3-yl]-3-chlorobenzoyl}piperidin-4-yl) acetamide] | > 10 | – | – |
| 1.3 | – | CC(C)(C)C(=O)N1CCN(C(=O)c2ccc(-c3csc(-c4ccnc(C(C)(C)C)c4)c3)c(Cl)c2)CC1 [Compound 46, 1-(4-{4-[5-(2-tert-butylpyridin-4-yl)thiophen-3-yl]-3-chlorobenzoyl}piperazin-1-yl)-2,2-dimethylpropan-1-one] | > 10 | – | – |
| 0.26 | – | CC(C)(C)c1cc(-c2cc(-c3ccc(C(=O)N4CCCC(O)C4)cc3Cl)cs2)ccn1 (stereo not shown) [Compound 48, 1-{4-[5-(2-tert-butylpyridin-4-yl)thiophen-3-yl]-3-chlorobenzoyl}piperidin-3-ol] | > 10 | – | – |
| 0.31 | – | CC(C)(C)c1cc(-c2cc(-c3ccc(C(=O)N4CCC[C@@H](O)C4)cc3Cl)cs2)ccn1 [Compound 48a, (R)-(4-(5-(2-(tert-butyl)pyridin-4-yl)thiophen-3-yl)-3-chlorophenyl)(3-hydroxypiperidin-1-yl)methanone] | > 10 | – | – |
